Reference: publication PMC9037111, “Structure-based design, synthesis, and biological evaluation of novel piperine–resveratrol hybrids as antiproliferative agents targeting SIRT-2” (RSC Advances, 2021)
Like-named read-outs stand apart in the source and are kept apart here.

Experiments:
Test in all cases: sirtuin deacetylase inhibition assay, % inhibition at […] ([…] at […])
Assay type in all cases: biochemical
SIRT1 [1] = target: T1, SIRT1 (Homo sapiens, UniProt Q96EB6)
T1 sequence (Q96EB6 2-747): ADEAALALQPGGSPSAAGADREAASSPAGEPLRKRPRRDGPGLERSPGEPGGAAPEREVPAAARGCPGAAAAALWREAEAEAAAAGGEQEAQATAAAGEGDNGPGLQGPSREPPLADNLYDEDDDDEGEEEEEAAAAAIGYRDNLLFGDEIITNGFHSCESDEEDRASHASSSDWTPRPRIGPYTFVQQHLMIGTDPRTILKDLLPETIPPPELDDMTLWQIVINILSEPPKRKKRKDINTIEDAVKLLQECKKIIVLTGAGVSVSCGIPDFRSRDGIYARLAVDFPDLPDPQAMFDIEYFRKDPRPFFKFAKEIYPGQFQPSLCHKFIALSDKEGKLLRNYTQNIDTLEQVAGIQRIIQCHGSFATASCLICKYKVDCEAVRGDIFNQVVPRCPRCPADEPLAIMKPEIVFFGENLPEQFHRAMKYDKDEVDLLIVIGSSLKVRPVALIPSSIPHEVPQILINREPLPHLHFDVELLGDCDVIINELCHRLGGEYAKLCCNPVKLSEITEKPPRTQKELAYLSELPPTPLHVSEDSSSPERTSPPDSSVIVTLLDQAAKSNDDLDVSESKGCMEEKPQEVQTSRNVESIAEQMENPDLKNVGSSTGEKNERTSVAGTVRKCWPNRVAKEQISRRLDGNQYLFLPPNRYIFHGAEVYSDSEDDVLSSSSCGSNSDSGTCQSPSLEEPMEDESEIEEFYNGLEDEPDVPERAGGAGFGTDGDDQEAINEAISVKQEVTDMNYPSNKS

SIRT2 [2] = target: T2, SIRT2 (Homo sapiens, UniProt Q8IXJ6)
T2 sequence (Q8IXJ6 2-389): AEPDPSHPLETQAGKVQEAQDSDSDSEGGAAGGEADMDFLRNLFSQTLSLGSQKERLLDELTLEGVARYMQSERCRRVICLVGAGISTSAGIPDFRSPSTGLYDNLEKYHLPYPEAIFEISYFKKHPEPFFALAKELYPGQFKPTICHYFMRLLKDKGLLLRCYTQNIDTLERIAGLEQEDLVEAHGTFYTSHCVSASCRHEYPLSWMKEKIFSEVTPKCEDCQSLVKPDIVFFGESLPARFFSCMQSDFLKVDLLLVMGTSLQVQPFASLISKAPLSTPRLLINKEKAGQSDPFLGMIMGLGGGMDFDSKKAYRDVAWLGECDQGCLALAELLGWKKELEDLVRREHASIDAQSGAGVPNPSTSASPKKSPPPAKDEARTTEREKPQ

SIRT2 [3] = target: T2, SIRT2; remark: listed apart in the source
SIRT1 [4] = target: T1, SIRT1; remark: listed apart in the source

Q: What does the source list for `CN(C)c1ccc(C=NNC(=O)/C=C/C=C/c2ccc3c(c2)OCO3)cc1` (mixture of isomers) [5d, (2E,4E)-5-(Benzo[d][1,3]dioxol-5-yl)-N′-((E/Z)-4-(dimethylamino)-benzylidene)penta-2,4-dienehydrazide]?
A: inhibition at 50 µM (SIRT1 [1]): 48 ± 3%; inhibition at 50 µM (SIRT2 [2]): 70 ± 3%

Q: `O=C(/C=C/C=C/c1ccc2c(c1)OCO2)NN=Cc1ccc(O)cc1` [5a, (2E,4E)-5-(Benzo[d][1,3]dioxol-5-yl)-N′-((E,Z)-4-hydroxybenzylidene)penta-2,4-dienehydrazide] was tested. Which inhibition at 50 µM (SIRT2 [3]) did it give?
A: 72 ± 3%

Q: With `O=C(/C=C/C=C/c1ccc2c(c1)OCO2)N/N=C/c1ccc(O)cc1O` [5b, (2E,4E)-5-(Benzo[d][1,3]dioxol-5-yl)-N′-((E)-2,4-dihydroxybenzylidene)penta-2,4-dienehydrazide] as the compound, how does the inhibition at 50 µM (SIRT1 [4]) read?
A: 45 ± 3%
